{"source": "patent US8193220B1", "about": "(priority 2009, dated 2012)", "key": {"[1]": {"system": "eye muscles (lateral rectus muscle)", "format": "in vivo, human"}, "[2]": {"system": "eye muscles (lateral rectus muscle)", "details": "bupivacaine injected into eye muscles of strabismus patients; cited from earlier work"}, "[3]": {"system": "extensor digitorum longus muscle", "details": "rat hind limb extensor digitorum longus; cited from earlier work"}}, "note": "Like-named read-outs stand apart in the source and are kept apart here.", "data": [{"molecule": "CCCCN1CCCCC1C(=O)Nc1c(C)cccc1C", "note": "(stereo not drawn) [bupivacaine]", "values": [{"measurement": "change of eye alignment", "setting": "[1]; bupivacaine alone into lateral rectus", "value": "ineffective in changing eye alignment"}, {"measurement": "correction of strabismus", "setting": "[1]; human, in vivo", "value": "successful correction of strabismus"}, {"measurement": "length of regenerated lateral rectus muscle", "setting": "[1]; human, in vivo", "value": "shorter length"}, {"measurement": "length of regenerated lateral rectus muscle", "setting": "[1]; one case of esotropia, bupivacaine alone, antagonist medial rectus unopposed", "value": "longer muscle"}, {"measurement": "myotoxicity and weakness of the injected lateral rectus muscle", "setting": "[1]; one case of esotropia, bupivacaine alone, first injection", "value": "very pronounced"}, {"measurement": "effect on strabismus deviations", "setting": "[2]", "value": "correction or improvement of strabismus deviations"}, {"measurement": "period of hypertrophy (growth beyond the original state) after regeneration", "setting": "[2]", "value": "20 to 30", "unit": "days"}, {"measurement": "period of muscle weakness after injection", "setting": "[2]", "value": "7 to 16", "unit": "days"}, {"measurement": "muscle size after injection", "setting": "[3]", "value": "enlargement of the muscle beyond its original size"}]}]}
